Assay results from patent US20250288553A1, “Antimicrobial Compositions and Uses for Treatment of Clostridioides difficile, Mycobacterium tuberculosis, and Enterococcus faecalis Infection” (priority 2022, published 2025).
pIC50: −log10 of the molar value. ≈ marks a conversion by molar mass, not a printed value. Where “and” joins values, the source holds several entries; their conditions need not be identical. Equal entries are not always repeated.

Tests used:
[1] = tested on: TcdA production in C. difficile NAP1; assay: Toxin analysis: extracellular TcdA of C. difficile NAP1 at sub-MICs, western blot; type: cell-based, Clostridioides difficile; details: NAP1 challenged with 0.5×, 0.25×, 0.125× MIC, 48 h, TcdA normalized to total protein
Experimental: After a 48 h incubation of NAP1 challenged with several dilutions of each compound, extracellular toxin in spent media derived from triplicate cultures was assessed with western blots using a monoclonal antibody against TcdA. Semi-quantitative analysis of toxin levels was performed via densitometry of TcdA band intensity with respect to total protein as measured by the Bradford assay. Semi-quantitative plots are shown below each representative blot. (a) Toxin production in BHIS (NAP1) and BHIS with 5% DMSO (vehicle). (b) Toxin production from cultures challenged with sub-MICs of fidaxomicin, (c) vancomycin, and (d-j) (+)-puupehenone and selected derivatives. Data points represent the means of adjusted toxin levels derived from triplicate cultures, while error bars represent standard deviations. Statistical analysis was performed in GraphPad Prism 8 using unpaired t-tests. *P<0.05; **P<0.01.
To account for changes in biomass, a semi-quantitative analysis of TcdA production was performed by normalizing the target bands from representative western blots to the amount of total protein in each sample.
Toxin analysis. Toxin production was determined by analyzing the amount of extracellular toxin in the cultures from the ASTs described above. At 48 h, total protein of each culture was determined with the Bradford assay using bovine serum albumin (BSA) as a standard.^53 Cultures were then centrifuged at 5,000×g for 5 minutes to clear the supernatants which were separately collected and frozen at −20° C. After thawing at room temperature, cell-free supernatants were mixed 1:1 with 2× Laemmli buffer and incubated in a sand bath at 100° C. for 5 minutes. Twenty microliters of denatured samples were loaded onto 7.5% Tris-glycine gels and electrophoresed at 200 V for 1 h. After electrophoresis, samples were transferred to polyvinylidene difluoride membranes at 4° C. overnight at 30 V. Membranes were incubated in a blocking buffer (20 mM Tris-HCl, 150 mM NaCl, 0.01 mM ethylenediaminetetraacetic acid, 0.1% Tween 20, 1% BSA, [pH 7.5]) for 1 h at room temperature. TcdA was detected with a monoclonal mouse anti-TcdA antibody (PCG4.1, Novus Biologicals) and a rabbit anti-mouse antibody conjugated with alkaline phosphatase. Blots were visualized with a ChemiDoc XRS+ imaging system (Bio-Rad).
Semi-quantitative analysis of TcdA was performed using Image Lab 6.0 software (Bio-Rad). Briefly, after subtracting background noise, peaks corresponding to the target band were selected with the software's Lane Profile tool. The density of each peak generated a value (arbitrary units) that was normalized to the total protein amount of each respective sample. […] These losses of activity prevented us from performing statistical analysis from multiple experiments, as the sub-MICs were not always the same. Since there were no changes to the methodology described, several other reasons could have accounted for decreased activity, such as compound stability, freeze-thaw, and adherence to plastic. Nevertheless, the toxin results were reproducible, irrespective of the exact sub-MICs on different days.

[2] = tested on: Bacillus subtilis ATCC 23857; assay: MIC against B. subtilis, REMA; details: for MIC B. subtilis: REMA, visual, 24 h
[3] = tested on: Clostridioides difficile NAP1; assay: MIC against C. difficile NAP1, modified broth microdilution; details: for MIC C. difficile: NAP1, modified broth microdilution, 48 h, anaerobic; for MIC: Clostridioides difficile, NAP1, 48 h, read-out: MIC C. difficile, NAP1, modified broth microdilution, 48 h, anaerobic
[4] = tested on: Enterococcus faecalis ATCC 29212; assay: MIC against E. faecalis, REMA; details: for MIC E. faecalis: REMA, visual, 24 h
[5] = tested on: Staphylococcus aureus ATCC 25923; assay: MIC against S. aureus, REMA; details: visual, 24 h
Mtb = details: at a concentration of 12.5 μg/mL; cited from earlier work
active Mtb = details: earlier screen (ref 12); cited from earlier work
dormant Mtb = details: earlier screen (ref 12); cited from earlier work
[6] = tested on: Mycobacterium tuberculosis H37Ra ATCC 25177; assay: MIC against Mtb H37Ra, resazurin microtiter assay (REMA); type: cell-based; details: for MIC: Mycobacterium tuberculosis, 336 h, read-out: MIC Mtb H37Ra, determined visually by REMA assay, 14-day incubation
[7] = tested on: dormant Mtb-lux (Mycobacterium tuberculosis CDC1551 with pMV306hsp+LuxG13); type: cell-based; details: for R/D (MICR/MICD, Mtb-lux): ratio replicating MIC to dormant MIC
[8] = tested on: replicating Mtb-lux (Mycobacterium tuberculosis CDC1551 with pMV306hsp+LuxG13); type: cell-based
[9] = tested on: J774A.1 (murine macrophage-like) cell line; assay: Cytotoxicity assay J774A.1; type: cell-based
Experimental: (§1) To evaluate the selectivity of the top six compounds from the Mtb-lux activity screen (Table 2), cytotoxicity for two different mammalian cell lines was determined. The IC50 was calculated for each compound against J774A.1 and HepG2 cell lines. The selectivity index (SI) for both replicating and dormant conditions was then calculated by taking the IC50 and dividing it by the corresponding MIC (SIR=IC50/MICR, SID=IC50/MICD)^40. Consistent with the experience, the J774 macrophage cell line was more sensitive to all compounds tested. […] Based on these observations, this triacetate protected puupehenone represents a promising candidate for further optimization.
(§2) Cytotoxicity assay: Cytotoxicity was assessed using J774A.1 (murine macrophage-like) and HepG2 (human liver carcinoma) cell lines using 2-fold dilution of the compounds as described previously^42, 43. IC50 values were determined using nonlinear regression fitting of the databy GraphPad Prism. The selectivity Index (SI) was calculated as IC50/MIC.

[10] = Cytotoxicity assay J774A.1; type: cell-based, murine; details: mouse, J774A.1 macrophage-like cells; J774A.1 cells; read-out: Cytotoxicity (IC50) J774
Experimental: as §1, §2

[11] = tested on: HepG2 (human liver carcinoma) cell line; assay: Cytotoxicity assay HepG2
Cytotoxicity assay HepG2 = details: human

CC1(C)CCCC2(C)C1CCC(C)(O)C2Cc1ccc(O)cc1O (stereo not drawn) [Compound 36]
Effect on TcdA toxin production [1]: did not appear to substantially change toxin production
MIC B. subtilis [2]: 8.2 µg/mL and 8.3 µg/mL
MIC C. difficile [3]: 8.0 µg/mL (≈ 24.1 µM)
MIC E. faecalis [4]: 16.2 µg/mL (≈ 48.7 µM)
MIC S. aureus [5]: 16.6 µg/mL (≈ 49.9 µM)

CC1(C)CCC[C@]2(C)[C@H]3[C@H](C#N)c4cc(O)c(O)cc4O[C@@]3(C)CC[C@@H]12 [Compound 4, 15-α-cyanopuupehenol]
inhibition of Mtb (Mtb): 96%

CC1(C)CCC[C@]2(C)C3=CC4=CC(=O)C(=O)C=C4O[C@@]3(C)CC[C@@H]12 [Compound 2, Puupehedione]
MIC against active Mtb (active Mtb): 87.6 µg/mL (≈ 268 µM)
MIC in multistress dormancy model of Mtb (dormant Mtb): 15.4 µg/mL

CC1(C)CCC[C@]2(C)[C@@H]1CC[C@]1(C)Oc3ccc(O)cc3C[C@@H]21 [Compound 31, (+)-Chromazonarol]
MIC B. subtilis [2]: 8.6 µg/mL (≈ 27.3 µM)
MIC C. difficile [3]: inactive
MIC Mtb H37Ra [6]: 31.4 µg/mL (≈ 99.9 µM)
MIC E. faecalis [4]: inactive
MIC S. aureus [5]: inactive
MICD (Mtb-lux) [7]: 32 µg/mL
R/D (MICR/MICD, Mtb-lux) [7]: 1.8
MICR (Mtb-lux) [8]: 56.5 µg/mL

CC1(C)CCC[C@]2(C)[C@@H](Cc3cc(O)ccc3O)[C@](C)(O)CC[C@@H]12 [Compound 41, (+)-Yahazunol]
MIC B. subtilis [2]: 33.2 µg/mL (≈ 99.9 µM)
MIC C. difficile [3]: did not inhibit
MIC S. aureus [5]: 33.2 µg/mL (≈ 99.9 µM)

CO[C@@H]1c2cc(OC(=O)C(C)(C)C)c(O)cc2O[C@@]2(C)CC[C@H]3C(C)(C)CCC[C@]3(C)[C@@H]12 [Compound 19, 15-α-methoxypuupehenol monopivalate]
Effect on TcdA toxin production [1]: did not appear to substantially change toxin production
MIC ([2]; Bacillus subtilis, ATCC23857, 24 h, read-out: MIC B. subtilis): 22.2 µg/mL (≈ 50 µM)
MIC [3]: 2 to 4 µg/mL (≈ 4.5 to 9 µM)
MIC C. difficile [3]: 4.0 µg/mL (≈ 9 µM)
MIC [6]: 44.4 µg/mL (≈ 99.9 µM)
SI (SID) J774 [9]: 37.6
SI (SIR) J774 [9]: 4.4
pIC50 [10]: 4.25
MIC ([4]; Enterococcus faecalis, ATCC29212, 24 h, read-out: MIC E. faecalis): 22.2 µg/mL (≈ 50 µM)
SI (SID) HepG2 [11]: > 133.3
SI (SIR) HepG2 [11]: > 15.7
pIC50 (Cytotoxicity assay HepG2): < 3.70
MICD (Mtb-lux) [7]: 1.5 µg/mL
MICR (Mtb-lux) [8]: 12.7 µg/mL

CC(=O)Oc1cc2c(cc1OC(C)=O)[C@@H](OC(C)=O)[C@@H]1[C@@]3(C)CCCC(C)(C)[C@@H]3CC[C@]1(C)O2 [Compound 20, 15-α-acetoxypuupehenol diacetate]
Effect on TcdA toxin production [1]: decreased the amount of toxin in a similar concentration-dependent manner
MIC [3]: 2 to 4 µg/mL
MIC C. difficile [3]: 2.0 µg/mL
MIC [6]: 11.8 µg/mL
SI (SID) J774 [9]: > 142.3
SI (SIR) J774 [9]: > 33.3
Cytotoxicity (IC50) J774 ([9]; J774A.1 cells): no cytotoxicity
pIC50 [10]: < 3.70
SI (SID) HepG2 [11]: > 142.3
SI (SIR) HepG2 [11]: > 33.3
Cytotoxicity (IC50) HepG2 ([11]; HepG2 cells): no cytotoxicity
pIC50 (Cytotoxicity assay HepG2): < 3.70
MICD (Mtb-lux) [7]: 1.4 µg/mL
R/D (MICR/MICD, Mtb-lux) [7]: 4.3
MICR (Mtb-lux) [8]: 6.0 µg/mL

CC1(C)CCCC2(C)C1CCC(C)(O)C2Cc1ccc(O)cc1 (stereo not drawn) [Compound 34]
Effect on TcdA toxin production [1]: decreased the amount of toxin in a similar concentration-dependent manner
MIC B. subtilis [2]: 7.9 µg/mL (≈ 25 µM)
MIC C. difficile [3]: 16.0 µg/mL (≈ 50.6 µM)
MIC E. faecalis [4]: 15.8 µg/mL (≈ 49.9 µM)
MIC S. aureus [5]: 16.9 µg/mL (≈ 53.4 µM)
MICD (Mtb-lux) [7]: 30.9 µg/mL
R/D (MICR/MICD, Mtb-lux) [7]: 3.7
MICR (Mtb-lux) [8]: 114.3 µg/mL

CO[C@@H]1c2cc(O)c(O)cc2O[C@@]2(C)CCC3C(C)(C)CCC[C@]3(C)[C@@H]12 (stereo partly drawn) [Compound 3, 15-α-methoxypuupehenol]
MIC against active Mtb (active Mtb): 11.3 µg/mL (≈ 31.3 µM)
MIC in multistress dormancy model of Mtb (dormant Mtb): 0.5 µg/mL

CC1(C)CCCC2(C)C1CCC(C)(O)C2Cc1ccc(O)c(O)c1 (stereo not drawn) [Compound 38]
MIC B. subtilis [2]: did not exhibit any activity
MIC C. difficile [3]: did not exhibit any activity
MIC E. faecalis [4]: did not exhibit any activity
MIC S. aureus [5]: did not exhibit any activity
MICD (Mtb-lux) [7]: 42.0 µg/mL
R/D (MICR/MICD, Mtb-lux) [7]: 1.4
MICR (Mtb-lux) [8]: 58.0 µg/mL

CC1(C)CCC[C@]2(C)[C@H]3C(C#N)=C4C=C(O)C(=O)C=C4O[C@@]3(C)CC[C@@H]12 [Compound 5, 15-cyanopuupehenone]
inhibition of Mtb (Mtb): 90%
